Test results from article PMC4932848 (Biochemistry, 2012).

Target: T1, hUXS (human UDP-α-D-xylose synthase) (Homo sapiens, UniProt Q8NBZ7)
T1 sequence (Q8NBZ7 85-420): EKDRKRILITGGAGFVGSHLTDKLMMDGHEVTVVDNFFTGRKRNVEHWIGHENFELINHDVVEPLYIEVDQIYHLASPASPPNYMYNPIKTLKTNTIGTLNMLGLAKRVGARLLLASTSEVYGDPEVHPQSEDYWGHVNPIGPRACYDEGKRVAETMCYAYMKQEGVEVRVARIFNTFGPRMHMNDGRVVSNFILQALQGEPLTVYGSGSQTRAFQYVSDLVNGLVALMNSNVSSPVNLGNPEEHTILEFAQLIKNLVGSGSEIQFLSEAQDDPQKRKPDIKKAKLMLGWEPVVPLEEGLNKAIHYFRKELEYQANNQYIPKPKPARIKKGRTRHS
Assay: X-ray crystal structure, […] Å
Format: binding
Details: copurified NAD+ bound, open conformation, no nucleotide sugar

NC(=O)c1ccc[n+]([C@@H]2O[C@H](COP(=O)(O)OP(=O)(O)OC[C@H]3O[C@@H](n4cnc5c(N)ncnc54)[C@H](O)[C@@H]3O)[C@@H](O)[C@H]2O)c1 [NAD^+]
X-ray crystal structure, 2.5 Å: Recombinant hUXS crystallizes with the copurified NAD^+ cofactor bound
